Results: patent US20230322744A1, “COMPOUNDS AS GLP-1R AGONISTS” (Terns Pharmaceuticals, Inc., priority 2020, published 2023)

Biological target: wild-type human GLP-1R (Homo sapiens, UniProt P43220)
Experiment: GLP-1R Cell Assay 1 (cAMP Hunter CHO-K1 GLP1R Gs cell line, HitHunter cAMP assay)
Format: cell-based
Conditions: agonist activity, cellular cAMP, CHO-K1 overexpressing human GLP-1R; normalized to Exendin-4; Table 3; no stereo designation = tested as mixture of stereoisomers
Protocol: GLP-1R mediated agonist activity was determined using the cAMP Hunter CHO-K1 GLP1R Gs cell line (DiscoverX, cat #95-0062C2), a stable CHO-K1 derived cell lines overexpressing naturally Gs coupled wild-type human GLP-1R (accession number: NM_002062.3). GLP-1R agonism in this cell line was detected by measuring cellular cAMP levels using the HitHunter cAMP assay kit (cat #90-0075SM2), a homogenous, gain-of-signal competitive immune assay based on Enzyme Fragment Complementation (EFC) technology. In this system cellular cAMP competes with exogenous labeled cAMP (ED-cAMP) for binding to an anti-cAMP antibody. […] The luminescent signal is directly proportional to the amount of cellular cAMP.
For compound testing, cells were seeded in a total volume of 20 μL in white walled, 384-well microplates and incubated at 37° C. prior to compound testing. Prior to compound addition, cell culture media was removed by aspiration and replaced with 15 μL reagent buffer (2:1 HBSS/10 mM HEPES: cAMP XS+Ab reagent). […] Microplates were read on a PerkinElmer Envision instrument. Compound activity was analyzed using CBIS data analysis suite (ChemInnovation). Percent activity was calculated based on duplicate assay runs and normalized to the positive control Exendin-4, a GLP-1R peptide agonist, using the following formula: […]

Sequence of wild-type human GLP-1R (P43220 24-463): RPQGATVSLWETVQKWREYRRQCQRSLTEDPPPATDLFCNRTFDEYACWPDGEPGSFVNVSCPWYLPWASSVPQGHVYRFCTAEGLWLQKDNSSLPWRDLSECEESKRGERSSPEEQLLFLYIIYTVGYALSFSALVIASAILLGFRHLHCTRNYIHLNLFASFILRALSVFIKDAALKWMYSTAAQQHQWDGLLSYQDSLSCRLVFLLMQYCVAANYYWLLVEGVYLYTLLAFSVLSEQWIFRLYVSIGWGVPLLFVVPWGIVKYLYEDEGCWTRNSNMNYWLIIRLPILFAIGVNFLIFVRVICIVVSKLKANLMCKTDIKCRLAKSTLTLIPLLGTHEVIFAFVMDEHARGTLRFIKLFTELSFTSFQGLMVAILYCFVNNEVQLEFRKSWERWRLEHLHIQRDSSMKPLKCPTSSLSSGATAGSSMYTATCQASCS

EC50: 59.4 nM
SMILES: CCn1cncc1Cn1c(CN2CC[C@]3(c4cccnc4OCc4ccc(C#N)cc4F)C[C@@H]3C2)nc2ccc(C(=O)O)cc21 (single isomer, unassigned) [Compound 166, 2-((6-(2-((4-cyano-2-fluorobenzyl)oxy)pyridin-3-yl)-3-azabicyclo[4.1.0]heptan-3-yl)methyl)-1-((1-ethyl-1H-imidazol-5-yl)methyl)-1H-benzo[d]imidazole-6-carboxylic acid]
